Measured values: PubChem BioAssay AID2305 (GlaxoSmithKline (GSK), 2010)
pIC50: −log10 of the molar value.

These molecules were tested on P. falciparum 3D7 growth, pLDH absorbance (assay: blood-stage malaria parasite growth potency – strain 3D7, dose response (AID 2305)).
`COc1cc(Cc2cnc(N)nc2N)cc(OCCCN2C(=O)c3ccccc3C2=O)c1OC` showed a pIC50 of 6.00.
`CN(C)CCN(C)Cc1ccc(-c2ccc(NC(=O)c3ccc(Cl)cc3)cc2)cc1` showed a pIC50 of 6.03.
`O=C(Nc1ccon1)c1cc(-c2cccnc2)nc2ccc(Br)cc12` was tested, and the pIC50 was 6.13.
`Cc1cc2nc(-c3ccc(C(=O)NCc4ccc(Cl)c(Cl)c4)cc3)[nH]c2cc1C` showed a pIC50 of 6.08.
Work on `Cc1c(Cc2ccc(C(C)C)cc2)cnc2nc(N)nc(N)c12` yielded a pIC50 of 6.52.
`CCc1c[nH]c2c(N3CCCC3=O)cc(C(=O)N[C@@H](Cc3ccccc3)[C@H](O)CNC(C)(C)c3cccc(OC)c3)cc12` was tested, and the pIC50 was 6.72.
In the case of `COCCOC(=O)C(=O)c1c(-c2ccccc2)c(-c2ccc(OC)c(OC)c2)c2c3cc(OC)c(OC)cc3ccn12`, the pIC50 was 6.30.
`CN1CC=C(c2c[nH]c3ccc(OCc4ccccc4)cc23)CC1` was tested, and the pIC50 was 6.14.
For `COc1ccc(Cl)cc1-c1nc(C(=O)NCCN2CCCCC2)c(C)s1`, the pIC50 was 6.03.
`CN1CCN(c2cc(-c3cccnc3)nc(-c3ccncc3)n2)CC1` showed a pIC50 of 6.26.
With `CC(C)c1ccc(OCC(O)CN(C)C(C)C(O)c2ccccc2)c(Br)c1` (centres undefined) the pIC50 was 6.09.
With `O=C(NCCCCN1CCC(c2ccc3c(c2OCc2ccncc2)CCCC3)CC1)c1ccc(NC(=O)c2ccc(Cl)cc2)cc1` the pIC50 was 6.66.
Molecule `COc1cc2c(OC)cccc2cc1CNCCCCCCNCc1cc2cccc(OC)c2cc1OC` has a pIC50 of 6.09.
`c1ccc(-c2[nH]ncc2Nc2ccnc3ccccc23)nc1` was tested, and the pIC50 was 6.09.
With `COC(=O)c1ccc(CC(C)NCC(O)c2cccc(C(F)(F)F)c2)cc1F` (centres undefined) the pIC50 was 5.97.
`COc1ccc(C=NNc2cc(C)nc3ccccc23)c2ccccc12` was tested, and the pIC50 was 6.12.
With `O=C(N[C@H]1CCN(CCc2ccc(O[C@H]3CCNC3)c(Br)c2)C1)c1ccc(Cl)c(Cl)c1` the pIC50 was 6.18.
In the case of `CCOc1cc(Cc2cnc(N)nc2N)cc(OCC)c1OCC`, the pIC50 was 6.55.
With `CN(C)c1ccc(-c2csc(C(=O)NC3CCCCN(Cc4ccc(C(C)(C)C)cc4)C3)c2)cc1` (centres undefined) the pIC50 was 5.95.
Work on `COC(=O)c1cccc(CNCc2ccc(-c3ccc(-c4nc5ccc(F)cc5[nH]4)cc3)cc2)c1` yielded a pIC50 of 6.62.
For `Cc1ccc(O)cc1Nc1ccnc2ccc(C(C)(C)C)cc12`, the pIC50 was 5.90.
With `Cc1ccc(O)cc1Nc1ccnc2ccc(-c3cccc(CNCCN(C)C)c3)cc12` the pIC50 was 6.21.
Molecule `CC(=O)N(Cc1ccc(-c2ccc(CNCCc3ccccc3)cc2)cc1)C1CCN(Cc2ccccc2)CC1` has a pIC50 of 6.03.
`Cc1ccc(CC(C)NCC(O)c2cccc(C#N)c2)cc1` (centres undefined) gave a pIC50 of 6.03.
In the case of `C=C(F)c1sc(CNCCCNc2nc3ccccc3[nH]2)c(C)c1Br`, the pIC50 was 6.43.
`N#Cc1ccc2c(c1)CN(C1CCC(NC(=O)c3cc(-c4ccc(Cl)cc4)cs3)CC1)CCC2` (centres undefined) showed a pIC50 of 6.02.
For `Cc1cccc(C)c1N1CCN(C2CCC(NC(=O)c3cc4ccccc4[nH]3)CC2)CC1` (centres undefined), the pIC50 was 6.22.
For `C=CCOC(=O)N1CCC(CNCc2cccc(-c3cccc(-c4nc5ccccc5[nH]4)c3)c2)C1` (centres undefined), the pIC50 was 6.47.
For `O=C(Cn1c(CCc2cccc(F)c2F)nc(=O)c2ccccc21)N(CCCN1CCCC1)Cc1ccc(-c2ccc(C(F)(F)F)cc2)cc1`, the pIC50 was 6.03.
In the case of `COc1cccc(C(=O)NCc2cccs2)c1OCc1ccccc1`, the pIC50 was 6.04.
Molecule `O=C(/C=C/c1ccc(Br)cc1)NCCCCCN1CCC(c2c[nH]c3ccccc23)CC1` has a pIC50 of 6.14.
Work on `CCOC(=O)c1ccc(OCCCCCCOc2ccc(Br)cc2)cc1` yielded a pIC50 of 6.11.
Molecule `COc1ccc(Cn2cncc2CN(CCC(C)C)C(=O)c2ccc(Cl)nc2Cl)cc1` has a pIC50 of 5.98.
Work on `O=c1cc(NCC2(CNCc3cn(Cc4ccccc4)c4ccccc34)CCCCC2)[nH]c2ccccc12` yielded a pIC50 of 6.17.
In the case of `CC(C)CNC(=O)c1cncc(-c2ccc(CNCCCc3ccccc3)cc2)c1`, the pIC50 was 6.11.
`Cc1ccc(Nc2nc(NN=Cc3cccc([N+](=O)[O-])c3)nc(Nc3ccccc3)n2)c(C)c1` showed a pIC50 of 6.20.
Molecule `O=C(NC1CCN(Cc2ccccc2)CC1)c1cc(-c2ccncc2)nc2ccc(Cl)cc12` has a pIC50 of 6.04.
Molecule `O=C(NC1CCC(CCN2Cc3cccc(C(F)(F)F)c3C2)CC1)c1cccc(-c2cccnc2)c1` (centres undefined) has a pIC50 of 5.99.
In the case of `CN(C)c1ccc(C=C2SC(=O)NC2=Nc2ccccc2)cc1`, the pIC50 was 7.52.
`CN(C)CCOc1cc(NC(=O)Nc2ccc(-c3ccccc3)cc2Cl)ccc1I` was tested, and the pIC50 was 6.60.
`CO/C(=C\C=C\c1cc2cc(Cl)ccc2[nH]1)C(=O)NCCCN1CCN(c2cc(Cl)ccc2OC)CC1` showed a pIC50 of 6.06.
In the case of `CC(C)(C)NCCN(Cc1ccc(-c2ccc(C(F)(F)F)cc2)cc1)C(=O)Cn1c(SCc2ccc(F)cc2)nc(=O)c2c1CCC2`, the pIC50 was 6.07.
For `O=C(Nc1cccc(-c2ccc(-c3nc4ccccc4[nH]3)s2)c1)c1ccncc1`, the pIC50 was 6.11.
`COc1ccc(C=NNc2cc(C)nc3ccccc23)c(OC)c1` showed a pIC50 of 6.21.
Molecule `CCCCN(CCCC)C(=NCCCCCCN=C(NC(N)=NCc1ccc(Cl)c(Cl)c1)N(CCCC)CCCC)NC(N)=NCc1ccc(Cl)c(Cl)c1` has a pIC50 of 6.40.
`CC(C)c1ccc(O)cc1Nc1ccnc2ccc(C(F)(F)F)cc12` was tested, and the pIC50 was 6.17.
`COC(=O)c1cccc(OCCNC2CCN(C[C@H](O)c3ccnc4ccc(OC)cc34)CC2)c1` gave a pIC50 of 6.47.
Work on `COc1cc(C2CCCCC2)c(OC)cc1CC1c2cc(O)c(Cl)cc2CCN1C` (centres undefined) yielded a pIC50 of 6.35.
In the case of `O=C(NC1CCC(N2CCC(O)(c3ccc(F)cc3)CC2)CC1)c1cc2ccccc2[nH]1` (centres undefined), the pIC50 was 6.13.
